According to ChEMBL document CHEMBL2010646, “Small molecule inhibitors of the HPV16-E6 interaction with caspase 8” (Bioorg Med Chem Lett, 2012):
pIC50: −log10 of the molar value. Activity calls are given as the source filed them. No cut-off for these calls is given here.

target: Caspase-8 (Homo sapiens) (UniProt Q14790); assay: Inhibition of GST-tagged human caspase 8 interaction with His-tagged human caspase 8 expressed in Escherichia coli at 0.1 to 10 uM after 1 hr followed by overnight incubation by bead-based binding assay
Sequence (Q14790 217-374 limits assumed): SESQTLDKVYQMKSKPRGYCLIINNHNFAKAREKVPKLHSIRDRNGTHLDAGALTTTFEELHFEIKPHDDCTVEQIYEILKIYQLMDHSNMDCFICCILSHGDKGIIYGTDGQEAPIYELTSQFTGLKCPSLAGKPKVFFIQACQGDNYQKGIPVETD
Sequence (Q14790 385-479 limits assumed): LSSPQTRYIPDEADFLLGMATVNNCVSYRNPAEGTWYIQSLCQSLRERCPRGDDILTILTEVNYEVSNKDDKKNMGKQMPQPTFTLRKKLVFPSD

Question: How did the inhibition turn out when `O=c1c(O)c(-c2ccccc2)oc2ccc(O)cc12` was run?
Answer: inactive

Question: `O=c1c(O)c(-c2ccc(O)cc2O)oc2cc(O)cc(O)c12` [MORIN] was tested. Which inhibition did it give?
Answer: inactive

Question: How did the inhibition turn out when `O=c1c(O)c(-c2cc(O)c(O)c(O)c2)oc2cc(O)cc(O)c12` [MYRICETIN] was run?
Answer: inactive

target: Protein E6 (Human papillomavirus 16) (UniProt P03126); assay: Inhibition of GST-tagged Human papillomavirus 16 protein E6 interaction with His-tagged human FADD expressed in Escherichia coli after 1 hr incubation followed by overnight incubation by Alpha screening technique
Sequence (P03126 whole entry): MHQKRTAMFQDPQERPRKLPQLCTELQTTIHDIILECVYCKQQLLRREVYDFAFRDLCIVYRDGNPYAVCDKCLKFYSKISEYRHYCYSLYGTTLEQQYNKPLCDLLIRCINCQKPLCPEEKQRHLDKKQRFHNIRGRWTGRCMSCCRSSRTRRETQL

Question: How did the inhibition turn out when `O=c1c(O)c(-c2ccc(O)cc2)oc2cc(O)cc(O)c12` [KAEMPFEROL] was run?
Answer: Dose-dependent effect

target: Protein E6 (Human papillomavirus 16, UniProt P03126); assay: (§1) Inhibition of GST-tagged Human papillomavirus 16 protein E6 interaction with His-tagged human caspase 8 expressed in Escherichia coli after 1 hr incubation followed by overnight incubation by Alpha screening technique
Sequence (P03126 whole entry): as above

Question: `O=c1c(O)c(-c2ccc(O)cc2)oc2cc(O)cc(O)c12` [KAEMPFEROL] was tested. Which pIC50 did it give?
Answer: < 4.70

Question: `O=c1c(O)c(-c2ccc(O)cc2O)oc2cc(O)cc(O)c12` [MORIN] was tested. Which pIC50 did it give?
Answer: 5.40

Question: How did the pIC50 turn out when `O=c1c(O)c(-c2ccc(O)c(O)c2)oc2cc(O)cc(O)c12` [QUERCETIN] was run?
Answer: < 4.70

Question: With `O=c1c(O)c(-c2cc(O)c(O)c(O)c2)oc2cc(O)cc(O)c12` [MYRICETIN] as the compound, how does the pIC50 read?
Answer: 6.07

target: Protein E6 (Human papillomavirus 16) (UniProt P03126); assay: as §1

Question: Which inhibition does the source give for `O=c1c(O)c(-c2ccc(O)cc2)oc2cc(O)cc(O)c12` [KAEMPFEROL] here?
Answer: Dose-dependent effect

target: Protein E6 (Human papillomavirus 16) (UniProt P03126); assay: Inhibition of GST-tagged Human papillomavirus 16 protein E6 interaction with His-tagged human caspase 8 expressed in Escherichia coli at 20 nM to 20 uM after 1 hr incubation followed by overnight incubation by Alpha screening technique

Question: For `COc1cc(-c2oc3cc(O)ccc3c(=O)c2O)ccc1O`, which inhibition is on record?
Answer: inactive

Question: `CC(C)c1ccc(-c2oc3c(Cl)cc(CC(=O)O)cc3c(=O)c2O)cc1` was tested. Which inhibition did it give?
Answer: inactive

Question: For `O=c1c(O)c(-c2ccc(O)c(O)c2)oc2cc(O)ccc12`, which inhibition is on record?
Answer: inactive

Question: For `COc1cc(O)c2c(=O)c(O)c(-c3ccc(O)c(O)c3)oc2c1`, which inhibition is on record?
Answer: inactive

Question: How did the inhibition turn out when `O=c1c(O)c(-c2ccccc2O)oc2cc(O)cc(O)c12` was run?
Answer: inactive

Question: For `O=c1c(O)c(-c2ccccc2)oc2cc(O)ccc12`, which inhibition is on record?
Answer: inactive

Question: For `O=C(O)Cc1cc(Cl)c2oc(-c3ccccc3)c(O)c(=O)c2c1`, which inhibition is on record?
Answer: inactive

Question: `O=c1c(O)c(-c2ccccc2)oc2ccc(O)cc12` was tested. Which inhibition did it give?
Answer: inactive

Question: For `O=c1c(O)c(-c2ccccc2)oc2cc(O)cc(O)c12`, which inhibition is on record?
Answer: Active

Question: How did the inhibition turn out when `O=c1cc(-c2ccccc2)oc2ccccc12` was run?
Answer: inactive

Question: How did the inhibition turn out when `COc1ccc2c(=O)c(O)c(-c3ccccc3)oc2c1` was run?
Answer: inactive

Question: `O=C(O)Cc1cc(Cl)c2oc(-c3ccc(Cl)cc3)c(O)c(=O)c2c1` was tested. Which inhibition did it give?
Answer: inactive

Question: `O=c1cc(-c2ccc(O)cc2)oc2cc(O)cc(O)c12` was tested. Which inhibition did it give?
Answer: inactive

Question: With `COc1cc(-c2oc3cc(O)cc(O)c3c(=O)c2O)ccc1O` as the compound, how does the inhibition read?
Answer: inactive

Question: `O=c1c(O)c(-c2ccccc2)oc2ccccc12` was tested. Which inhibition did it give?
Answer: inactive
